Values quoted from earlier work as cited in patent US20250255800A1, “DETERGENT COMPOSITIONS FOR WASHING URUSHIOL AND METHODS OF TREATING URUSHIOL INDUCED CONTACT DERMATITIS” (THE WILLIAM M. YARBROUGH FOUNDATION, priority 2020, published 2025).

Columns and labels:
aquatic organisms = conditions: EPA statement / GHS Hazard Statement H411
[1] = in vitro and in vivo assays

| Substance | toxicity to aquatic life (aquatic organisms) | estrogenic properties [1] |
| --- | --- | --- |
| nonoxynol 9 [nonoxynol-9] | toxic to aquatic life with long lasting effects |  |
| nonylphenol [nonylphenol (NP)] | extremely toxic to aquatic organisms | exhibit estrogenic properties |
